One data set concerns the target T1, Y2 receptor (Homo sapiens, UniProt P49146).
T1 sequence (P49146 1-381): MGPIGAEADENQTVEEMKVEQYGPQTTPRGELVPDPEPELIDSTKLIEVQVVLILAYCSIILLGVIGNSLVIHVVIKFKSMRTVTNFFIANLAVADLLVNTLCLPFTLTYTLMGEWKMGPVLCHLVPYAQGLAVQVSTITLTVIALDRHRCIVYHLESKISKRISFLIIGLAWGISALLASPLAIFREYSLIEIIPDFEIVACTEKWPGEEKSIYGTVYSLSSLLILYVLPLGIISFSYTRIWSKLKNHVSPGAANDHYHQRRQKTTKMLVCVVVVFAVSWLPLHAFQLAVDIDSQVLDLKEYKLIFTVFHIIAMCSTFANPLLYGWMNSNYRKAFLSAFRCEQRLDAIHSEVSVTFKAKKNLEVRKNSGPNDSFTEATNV
The experiment in a line: Y2 receptor binding assay ([125I]PYY, membrane protein). The conditions noted are these: [125I]PYY, membrane protein; read-out: hNPY2 IC50. An outline of the steps:
(§1)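 Filtration binding with membrane protein and drug dilution, 2 h at room temperature with mixing, radioactivity counted by gamma or scintillation. Y2: 25 pM [125I]PYY in Krebs-Ringer bicarbonate pH 7.4 with 0.01% BSA, nonspecific by 1 μM NPY. Y4/PP1: 50 pM [125I]hPP in HEPES-buffered saline pH 7.4 with protease inhibitors and 0.3% BSA, nonspecific by 1 μM hPP.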

Another data set deals with T2, Human NPY1 receptor (Homo sapiens, UniProt P25929).
T2 construct: host or cells: SK-N-MC cells
T2 sequence (P25929 1-384): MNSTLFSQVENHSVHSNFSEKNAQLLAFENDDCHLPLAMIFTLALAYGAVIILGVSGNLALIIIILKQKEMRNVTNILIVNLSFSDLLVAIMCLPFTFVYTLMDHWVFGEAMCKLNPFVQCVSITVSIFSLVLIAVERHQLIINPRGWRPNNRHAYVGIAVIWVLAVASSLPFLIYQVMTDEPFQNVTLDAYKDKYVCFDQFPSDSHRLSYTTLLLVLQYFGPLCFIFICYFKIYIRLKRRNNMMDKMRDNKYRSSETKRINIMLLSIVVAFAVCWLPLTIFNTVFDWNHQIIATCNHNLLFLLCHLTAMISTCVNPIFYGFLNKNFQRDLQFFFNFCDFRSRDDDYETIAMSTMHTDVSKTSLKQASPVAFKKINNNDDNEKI
The experiment in a line: Human NPY1 receptor binding assay ([125I]PYY, SK-N-MC cells). In short, it runs like this: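 Confluent SK-N-MC cells preincubated 30 min at room temperature in serum-free DMEM/25 mM HEPES pH 7.3 with BSA, bacitracin and PMSF, then incubated 3 h at room temperature with compound and ~50 pM [125I]PYY. Nonspecific binding defined with 1 μM NPY; bound radioactivity counted after Triton X-100 lysis.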

The target in data set [1] is T3, Rat NPY5 receptor (Rattus norvegicus, UniProt Q63634).
T3 sequence (Q63634 1-445): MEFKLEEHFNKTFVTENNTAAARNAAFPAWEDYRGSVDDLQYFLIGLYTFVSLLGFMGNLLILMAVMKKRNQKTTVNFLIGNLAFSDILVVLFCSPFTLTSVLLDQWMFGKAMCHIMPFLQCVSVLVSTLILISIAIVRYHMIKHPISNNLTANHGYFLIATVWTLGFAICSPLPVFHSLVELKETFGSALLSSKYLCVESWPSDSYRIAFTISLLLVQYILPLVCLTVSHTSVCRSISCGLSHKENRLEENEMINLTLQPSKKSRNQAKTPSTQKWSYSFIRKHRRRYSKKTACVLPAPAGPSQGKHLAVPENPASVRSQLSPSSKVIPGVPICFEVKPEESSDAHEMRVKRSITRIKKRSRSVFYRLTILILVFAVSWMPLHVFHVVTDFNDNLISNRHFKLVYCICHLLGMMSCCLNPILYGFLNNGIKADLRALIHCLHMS
Put plainly: Rat NPY5 cyclase assay (in vitro functional assay, forskolin-stimulated adenylate cyclase, cAMP). Format: cell-based. The conditions noted are these: 20 min; 10 μM; percentage of forskolin-stimulated adenylate cyclase; read-out: rNPY5 % FSAC (10 μM). In short, it runs like this: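 Cells stably expressing rat NPY5 receptor, in serum-free DMEM with 10 mM HEPES pH 7.4 and 1 mM IBMX, received […] plus compound for 20 min at 37 °C. Reactions were stopped by boiling. cAMP was quantified by radioimmunoassay and expressed as % of forskolin-stimulated adenylate cyclase.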

Data set [2] deals with T3, Rat NPY5 receptor. The experiment in a line: Rat NPY5 receptor binding assay ([125I]PYY, membrane protein). In short, it runs like this:
(§2)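 Membrane protein incubated 2 h at room temperature with 75-100 pM porcine [125I]PYY and compound in pH 7.4 Tris buffer with salts, 0.1% BSA and bacitracin. Nonspecific binding with 1 μM PYY. Filtration, then gamma or scintillation counting.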

The target of the next data set is T4, Human NPY5 receptor (Homo sapiens, UniProt Q15761).
T4 sequence (Q15761 1-445): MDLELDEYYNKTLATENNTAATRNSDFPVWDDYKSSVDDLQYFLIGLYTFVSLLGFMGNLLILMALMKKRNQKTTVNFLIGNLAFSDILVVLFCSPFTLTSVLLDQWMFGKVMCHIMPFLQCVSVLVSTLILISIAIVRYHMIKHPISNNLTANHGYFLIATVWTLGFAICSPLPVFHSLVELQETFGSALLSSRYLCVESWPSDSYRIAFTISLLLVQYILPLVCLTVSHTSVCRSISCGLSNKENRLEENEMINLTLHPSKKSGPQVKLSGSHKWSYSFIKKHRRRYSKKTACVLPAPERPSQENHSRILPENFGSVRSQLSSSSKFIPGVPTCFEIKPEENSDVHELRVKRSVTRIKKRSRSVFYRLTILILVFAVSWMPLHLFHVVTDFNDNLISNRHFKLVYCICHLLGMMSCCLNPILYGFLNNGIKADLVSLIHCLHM
The experiment in a line: Human NPY5 receptor binding assay ([125I]PYY, membrane protein). The conditions noted are these: [125I]PYY, read-out: hNPY5 IC50. An outline of the steps:
as §2

A further data set deals with human Y4/PP1 receptor (Homo sapiens, UniProt P50391). The experiment in a line: Human Y4/PP1 receptor binding assay ([125I]human PP, membrane protein). An outline of the steps:
as §1

Setting [3] is: [125I]PYY, SK-N-MC cells, read-out: hNPYI IC50.
[4] abbreviates: [125I]PYY, read-out: rNPY5 IC50.
[5] abbreviates: [125I]human PP, membrane protein, read-out: hNPY4 IC50.

The structures appear in SMILES notation. Read-outs that look alike come from different tables or passages of the source.

Sequence of human Y4/PP1 receptor (P50391 whole entry): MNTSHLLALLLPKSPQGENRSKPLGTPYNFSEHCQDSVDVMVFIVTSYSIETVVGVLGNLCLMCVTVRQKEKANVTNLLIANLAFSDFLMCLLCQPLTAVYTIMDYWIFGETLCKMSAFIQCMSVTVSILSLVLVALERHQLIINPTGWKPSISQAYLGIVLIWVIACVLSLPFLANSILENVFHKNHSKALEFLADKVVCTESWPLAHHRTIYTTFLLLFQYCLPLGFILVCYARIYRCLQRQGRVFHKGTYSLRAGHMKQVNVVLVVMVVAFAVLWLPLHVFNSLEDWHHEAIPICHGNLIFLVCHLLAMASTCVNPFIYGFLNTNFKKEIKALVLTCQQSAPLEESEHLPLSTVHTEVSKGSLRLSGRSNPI

As for `CCNC1(C(N)=O)CCN(CC(=O)Nc2ccc(C3CCCCC3)cc2)CC1.O=C(O)C(=O)O` [Compound 302, 1-[(4-Cyclohexyl-phenylcarbamoyl)-methyl]-4-ethylamino-piperidine-4-carboxylic acid amide; compound with oxalic acid], the melting point was determined as 184 °C. Further, the IC50 at Y2 receptor is greater than 5000 nM. Further, the 50% inhibitory concentration (IC50) at Human NPY1 receptor (setting [3]) is greater than 5000 nM. The activity at 10 µM on Rat NPY5 receptor [1] was 107%. On Rat NPY5 receptor [2] (setting [4]), the IC50 is 6 nM. Besides, the IC50 on Human NPY5 receptor worked out at 6 nM. Moreover, the 50% inhibitory concentration (IC50) on human Y4/PP1 receptor (setting [5]) is greater than 5000 nM.
In turn, `CCC(=O)C1(c2ccccc2)CCN(CC(=O)Nc2ccc(C3CCCCC3)cc2)CC1.Cl` [Compound 303, N-(4-Cyclohexyl-phenyl)-2-(4-phenyl-4-propionyl-piperidin-1-yl)-acetamide; hydrochloride] had a melting point of 252 °C. Moreover, the IC50 at Y2 receptor is greater than 5000 nM. Moreover, the half-maximal inhibitory concentration (IC50) on Human NPY1 receptor was greater than 5000 nM. Moreover, the activity at 10 µM on Rat NPY5 receptor [1] amounted to 93%. This compound registered an IC50 on Rat NPY5 receptor [2] (rNPY5 IC50, [125I]PYY) of 6 nM. Further, at Human NPY5 receptor, the 50% inhibitory concentration (IC50) was 4 nM. The compound further yielded a half-inhibitory concentration (IC50) at human Y4/PP1 receptor greater than 5000 nM.
On to `CC(=O)NC1CCN(CC(=O)Nc2ccc(C(=O)c3ccccc3)cc2)C1.O=C(O)C(=O)O` (stereo not drawn) [Compound 304, 2-(3-Acetylamino-pyrrolidin-1-yl)-N-(4-benzoyl-phenyl)-acetamide; compound with oxalic acid], for which the melting point was 100 °C. Moreover, the IC50 on Y2 receptor was greater than 5000 nM. The half-maximal inhibitory concentration (IC50) on Human NPY1 receptor (setting [3]) is greater than 5000 nM. In addition, the activity at 10 µM on Rat NPY5 receptor [1] came to 85%. Besides, the half-maximal inhibitory concentration (IC50) at Rat NPY5 receptor [2] (setting [4]) was 180 nM. For the same compound, the IC50 on Human NPY5 receptor stood at 150 nM. The IC50 on human Y4/PP1 receptor (setting [5]) is greater than 5000 nM.

Usually IC50 stands for the concentration at which inhibition is half-maximal. Broadly, the melting point is the temperature, or range, at which the solid turns liquid.

The values above are taken from patent US6410792B1, “Amide derivatives and methods for using the same as selective neuropeptide Y receptor antagonists” (Bayer Corporation, priority 1997, dated 2002).
